From US12246022B2, “Compositions and methods for treating, preventing or reversing age associated inflammation and disorders” (BROWN UNIVERSITY, priority 2019, dated 2025)
Like-named read-outs stand apart in the source and are kept apart here.

Legend:
[1] = Table 13 Comparative Studies; cited from earlier work
mouse LINE-1 = test: Mouse LINE-1 retrotransposition assay (dual luciferase pYX016 reporter, HeLa cells); format: cell-based
Method: Elvucitabine was obtained by custom synthesis. […] HeLa cervical cancer cells were cultivated at 37° C. in a humidified 5% CO2 incubator in Dulbecco's Modified Eagle's Medium (DMEM)-high glucose, with 4500 mg/L glucose, L-glutamine, sodium pyruvate and sodium bicarbonate (Sigma), supplemented with 10% of heat inactivated fetal bovine serum (Thermo Fisher). Assays were performed as described in Xie et al., 2011^151 with several modifications. The reporter assay was performed in 96 well white Optical bottom plates. 6000 HeLa cells were seeded in each well 24 hours prior transfection and compound treatment. All compounds were resuspended in DMSO. Stock solution concentrations varied from 50 mM to 1.25 mM depending of the solubility of the compound. Serial dilutions (1:3) were prepared in DMSO. Ten different concentrations of each compound were tested in triplicate. Medium containing different concentrations of the compounds were prepared by adding 2 μL of the compound dilution to 1 mL of the culture medium. The final concentration of DMSO in the medium was 0.2%. FuGENE® HD transfection reagent (Promega) was used to transfect the plasmid pYX016 into the cells. The transfection mix was prepared in OpiMEM (Thermo Fisher) using a reagent to DNA ratio of 3.5:1 according to manufacturer's instructions. Culture medium was removed from the cells and discarded. The transfection mix (5 μL) was mixed with the compound containing medium (100 μL/well) and this was added onto the cells of each well. Cells were incubated for 48H at 37° C./5% CO2. Luciferase reporter activity was quantified with the Dual-Luciferase® Reporter Assay System (Promega) according to manufacturer's instructions for multiwell plates with the following modification: Cells were lysed directly on the multiwell plate with 30 μL of the passive lysis buffer (PLB) for 20 min at room temperature, with gentle shaking to ensure complete cell lysis (instead of 20 μL of PLB for 15 min). Firefly and Renilla luciferase signals were measured using a SpectraMax i3x Multi-Mode Microplate Reader. […] Relative L1 activity was calculated as Firefly/Renilla *10,000. […] The experiment was performed twice, independently.

human LINE-1 = test: Human LINE-1 retrotransposition assay (dual luciferase pYX017 reporter, HeLa cells, Table 11); format: cell-based
Method: Assays were performed as described in Xie et al., 2011^151 with several modifications. The reporter assay was performed in 96 well white Optical bottom plates. 6000 HeLa cells were seeded in each well 24 hours prior transfection and compound treatment. All compounds were resuspended in DMSO. Stock solution concentrations varied from 50 mM to 1.25 mM depending of the solubility of the compound. Serial dilutions (1:3) were prepared in DMSO. Ten different concentrations of each compound were tested in triplicate. Medium containing different concentrations of the compounds were prepared by adding 2 μL of the compound dilution to 1 mL of the culture medium. The final concentration of DMSO in the medium was 0.2%. FuGENE® HD transfection reagent (Promega) was used to transfect the plasmid pYX016 into the cells. The transfection mix was prepared in OpiMEM (Thermo Fisher) using a reagent to DNA ratio of 3.5:1 according to manufacturer's instructions. Culture medium was removed from the cells and discarded. The transfection mix (5 μL) was mixed with the compound containing medium (100 μL/well) and this was added onto the cells of each well. Cells were incubated for 48H at 37° C./5% CO2. Luciferase reporter activity was quantified with the Dual-Luciferase® Reporter Assay System (Promega) according to manufacturer's instructions for multiwell plates with the following modification: Cells were lysed directly on the multiwell plate with 30 μL of the passive lysis buffer (PLB) for 20 min at room temperature, with gentle shaking to ensure complete cell lysis (instead of 20 μL of PLB for 15 min). Firefly and Renilla luciferase signals were measured using a SpectraMax i3x Multi-Mode Microplate Reader. […] Relative L1 activity was calculated as Firefly/Renilla *10,000. […] The experiment was performed twice, independently. […] Because the human construct yields a lower signal, compounds were incubated with cells for 72 hours instead of 48 hours, and cells were seeded at a density of 2000/well instead of 6000/well. In addition, the transfection reagent to DNA ratio was 2:1 instead of 3.5:1.

[2] = 300 mg per day; cited from earlier work
[3] = 3TC concentration in mouse plasma; format: in vivo; conditions: both sexes, C57BL/6J, oral, mice, 2 mg/mL in drinking water cohort, tail bleed at 20 months of age
Method: C57BL/6J mice of both sexes were obtained from the NIA Aged Rodent Colonies^61 at 5 and 18 months of age. The 5-month old animals were sacrificed after a short (1 week) acclimatization period, a variety of tissues were harvested, snap frozen in LN2 and stored at −80° C. The 18-month old animals were housed until they reached a desired age. Mice were housed in a specific pathogen-free AAALAC-certified barrier facility. Cages, bedding (Sani-chip hardwood bedding) and food (Purina Lab Chow 5010) were sterilized by autoclaving. Food and water (also sterilized) were provided ad libitum. A light-dark cycle of 12 hours was used (7 AM On, 7 PM Off). Temperature was maintained at 70° F., and humidity at 50%. All animals were observed daily and weighed once per week. In a pilot experiment, three cohorts of 10 animals each were treated with 3TC dissolved in drinking water (1.5 mg/ml, 2.0 mg/ml, 2.5 mg/ml) continuously from 18 months until sacrifice at 24 months. The fourth (control) cohort was provided with the same water without drug. […] Once during the experiment (at 20 months of age) the animals were subjected to a single tail bleed of approximately 70 μL. The collected plasma was shipped to the University of North Carolina CFAR Clinical Pharmacology and Analytical Chemistry Core for analysis of 3TC. For the 2 mg/mL cohort the concentration of 3TC in plasma averaged 7.2 μM. […]

[4] = pYX016, 48 H post-transfection, read-out: Mouse L1 activity inhibition IC50, Exp. 1
[5] = pYX016, 48 H post-transfection, read-out: Mouse L1 activity inhibition IC50, Exp. 2
[6] = pYX016, 48 H, n = 2, read-out: Mouse L1 activity inhibition IC50, Average

Row | SMILES | huCSF/Plasma [1] | IC50 (mouse LINE-1; [4]) | IC50 (mouse LINE-1; [5]) | IC50 (mouse LINE-1; [6]) | IC50 (human LINE-1; pYX017, 72 H post-transfection, read-out: Human L1 activity inhibition IC50, Exp. 1) | IC50 (human LINE-1; pYX017, 72 H post-transfection, read-out: Human L1 activity inhibition IC50, Exp. 2) | IC50 (human LINE-1; pYX017, 72 H, n = 2, read-out: Human L1 activity inhibition IC50, Average) | IC50 (human LINE-1; read-out: human L1 inhibition IC50) | 3TC in plasma at human HIV therapeutic dose [2] | concentration at 2 months of continuous dosing (sampled at 20 months of age) [3]
1 | Nc1nc(=O)n([C@@H]2CS[C@H](CO)O2)cc1F [Emtricitabine] | 0.35 | 640 nM | 451 nM | 546 nM |  |  |  |  |  | 
2 | Nc1ccn([C@@H]2CS[C@H](CO)O2)c(=O)n1 [Lamivudine] |  | 958 nM | 780 nM | 869 nM | 793 nM | 867 nM | 830 nM | > 800 nM | 5 to 8 µM | 7.2 µM
